Test results published in paper PMC8121762, “Peptidomics of enteroendocrine cells and characterisation of potential effects of a novel preprogastrin derived-peptide on glucose tolerance in lean mice” (Peptides, 2021).
Where no end group is shown, it is not given here.

Experiment: Pharmacokinetics studies in mice (i.v. and s.c. bolus, plasma LC–MS/MS)
Type: in vivo
Settings: mouse; for AUC / bioavailability: both sexes, C57BL/6 N J, plasma LC–MS/MS; for AUC: tail vein blood over 90 min; for Clearance: s.c.
Experimental: Male and female mice aged between 12–18 weeks old were used for these studies. Gast p59−79, ChgA 435−462a and Sst 25−36 were administered intravenously (i.v.) at 1 mg/kg and subcutaneously (s.c.) at various doses (see Fig. 7A, B and C for details on specific doses for each peptide). Blood samples were collected using EDTA coated microvette tubes (Starsedt, Leicester, UK) from the tail vein at various time points over 90 min. Blood was centrifuged (2000 g, 10 min, 4 °C) and the plasma separated. A 0.1 M sodium citrate (Sigma-Aldrich) buffer (adjusted to pH 3 with citric acid (Sigma-Aldrich)) was added to the plasma at a dilution of 1 in 10 to prevent degradation of Gast p59−79 and Sst 25−36. Plasma was stored -70 °C till extraction.
On the day of analysis, plasma samples were thawed, spiked with a stable isotope labelled version of Gast p59−79, ChgA 435−462a or Sst 25−36, and crashed with 200 μL 80 % ACN. After centrifuging, supernatants were removed and dried under gaseous nitrogen at 40 °C using a SPE Dry evaporator system (Biotage, Upsalla, Sweden). SPE was performed as described previously.
A Xevo TQ-XS triple quadrupole mass spectrometer coupled to H-class Aquity UPLC system enabled high throughput and targeted sample analysis. The column used was a Waters HSS T3 2.1 × 50 mm column at 60 °C and flowing at 350 μL/min. LC–MS/MS analysis was performed using positive ESI with a spray voltage of 3 kV, desolvation temperature 600°C, gas flow rate 1000 L/h and cone voltage of 40 V. Solvent A was 0.1 % FA in water (v/v) and Solvent B was 0.1 % FA in ACN (v/v). Each sample (40 μL per sample) was injected onto the column for 30 s with starting conditions set at 90 % A and 10 % B before the % B was increased to 50 % over the course of 3.5 min. The column was flushed with 90 % B for 1.5 min before initial conditions were restored. Total run time per sample was 5.5 min. Table 1 details the specifications used to quantify Gast p59−79, ChgA 435−462a, Sst 25−36 and their stable isotope labelled versions on a Xevo TQ-XS mass spectrometer.
Raw data files obtained on the Xevo TQ-XS triple quadrupole mass spectrometer were analysed using TargetLynx XS v4.2 software (Waters). Peptides were quantified by integrating the corresponding peaks and normalised to an internal standard if available. For pharmacokinetics studies, the concentration of peptide was estimated by comparing against a calibration line. SAAM II v2.2.1 (The Epsilon Group) with a Rosenbrock integrator and no maximum number of iterations was used to create a model for Gast p59−79 distribution and elimination upon single dose administration to mice.

Row | AUC (iv, 1 mg/kg) [ng·h/mL] | bioavailability (sc, 1 mg/kg) [%] | AUC (sc, 1 mg/kg) [ng·h/mL] | bioavailability (sc, 3 mg/kg) [%] | AUC (sc, 3 mg/kg) [ng·h/mL] | mass delivery rate required to obtain steady state concentration of 1 nM (estimated from PK data (SAAM II model), osmotic pump infusion) [mg/kg/day] | Clearance (1 mg/kg) [mL/h/kg] | Clearance (3 mg/kg) [mL/h/kg] | AUC (sc, 10 mg/kg) [ng·h/mL] | detection in plasma after s.c. injection (in vivo, sc, 10 mg/kg) | half-life in vivo (in words) (pilot data) | Clearance (10 mg/kg) [mL/h/kg] | Substance
1 | 362 | 46.7 | 169 | 50.4 | 547 | 0.29 | 5.92 | 5.48 | – | – | – | – | AEDQELESLSAIEAELEKVAHQLQALRR-NH2 [ChgA 435−462a]
2 | – | – | – | – | – | – | – | – | 3.3 | only detectable at low concentrations | very short half-life | 3030 | APSDPRLRQFLQ [Sst 25−36]
